The text below walks through data of patent publication US20140335083A1, “METHODS OF TREATMENT AND PREVENTION OF EYE DISEASES” (GLAXO GROUP LIMITED, priority 2011, published 2014).

Assay [1] concerns spontaneous CNV in JR5558 mice. Kind of assay: JR5558 spontaneous CNV model, CNV area and number by fluorescein angiography. It counts as in vivo. On the procedure: JR5558 mice develop CNV (on an atrophic background) spontaneously with CNV lesions first emerging approximately 12 days after birth. JR5558 mice were intraperitoneally treated with various amounts of a rat anti-mouse VEGF receptor (VEGFR)-2 blocking antibody (MAB4431; R&D systems) or a purified rat non-immune isotype match control IgG2α antibody (R&D systems) starting from P14 for a total of 10 doses in 11 days and CNV development was analyzed by fluorescein angiography (FA) 24 hours after the last dose on P25. For Mice treated with CCR3 inhibitor '994 they were dosed intraperitoneally or by eye drop with various concentrations of the drug starting at P14 for a total of 12 days and CNV development was analyzed by FA 24 hours after the last dose on P26. To study the combination effects of anti-VEGFR2 antibody and CCR3 inhibitor '994, mice were treated intraperitoneally with each material alone or in combination starting from P14 for a total of 10 doses in 11 days and CNV development was analyzed by FA 24 hours after the last dose on P25. Experiments exploring the effects of VEGF-A and CCR3 antagonists on vascular permeability from established CNV lesions, JR5558 mice utilised dosing for only two days after the development of CNV lesions and were treated with various amounts of the VEGFR-2 antibody or CCR3 inhibitor '994, or in combinations on P24 and P25. Fluorescein Angiography (FA) was performed on P26.
The pupils of mice were dilated with 2.5% tropicamide (Bausch & Lomb, Rochester, N.Y.) and 0.2 ml of 2% fluorescein sodium (Bausch & Lomb) diluted in water was administered by intraperitoneal injection. A Kowa Genesis-Df fundus camera (Kowa, Tokyo, Japan) was used to obtain fluorescein angiograms at early (90 seconds after fluorescein injection) and late (7 min) phases of dye transit. At the early phase, the vasculature of CNV tissue is clearly defined by the intravascular fluorescein dye. At the late phase, extravascular fluorescein is evident as patches of hyperfluorescence. To quantify the CNV area, Image J program was used to determine the size of each of the hyperfluorescence CNV in each eye with FA images from the early phase. Permeability of each CNV was determined by subtracting the hyper-fluorescent area of early phase (90 second post fluorescein injection) from late phase (7 minutes post fluorescein injection) FA images by using Image J.
JR5558 mice are a strain of mice with an unidentified genetic defect which causes them to develop spontaneous CNV in both retinae with a predictable time course with the first lesions initiating at about post-natal day 12. As such treatment with CCR3 inhibitor '994 was initiated at day 12 and continued for 12 days at which point animals were examined by retinal fluorescence angiography to quantitate the total CNV lesion load and the total number of CNV lesions present in the retinae. Treatment of animals with CCR3 inhibitor '994 led to suppression of both total lesion area (see, FIG. 3, Table 3) and in the total number of CNV lesions present in the retinae (see, FIG. 3, Table 4) when dosed i.p. at either 8 mg/kg QD or 30 mg/kg QD but not when the dose was 2 mg/kg QD.

For a further assay, the target named is T1, CCR3 (Mus musculus, UniProt P51678).
T1 construct: endogenous in cells; host or cells: juvenile mice in vivo; CCR3-bearing cells, mainly eosinophils
T1 sequence (P51678 1-359): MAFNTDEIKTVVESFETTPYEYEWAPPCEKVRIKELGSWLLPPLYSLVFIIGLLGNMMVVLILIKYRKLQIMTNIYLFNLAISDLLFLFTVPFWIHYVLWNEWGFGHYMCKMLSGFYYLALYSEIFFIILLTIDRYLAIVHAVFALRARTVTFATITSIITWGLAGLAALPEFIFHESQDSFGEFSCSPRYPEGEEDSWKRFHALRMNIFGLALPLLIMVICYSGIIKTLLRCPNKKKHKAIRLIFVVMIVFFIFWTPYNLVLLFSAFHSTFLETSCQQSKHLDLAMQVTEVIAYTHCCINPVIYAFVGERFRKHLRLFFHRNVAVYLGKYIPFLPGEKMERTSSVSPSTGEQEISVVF
As to the kind of experiment: Fractional CCR3 receptor occupancy calculated from blood concentrations in juvenile mice. The format is in vivo. On the procedure: Following dosing of 8 mg/kg i.p QD CCR3 inhibitor '994 in juvenile mice to mimic exposure effects in JR5558 mice, blood concentration at 24 hrs was calculated for 2 mg/kg i.p, 8 mg.kg i.p and 30 mg/kg i.p. doses by projecting the log linear phase of the PK profile. Blood drug concentrations were then used to determine fractional receptor occupancy using the Langmuir binding isotherm and the pKi for CCR3 inhibitor '994 (estimated in a mouse eosinophil chemotaxis assay). The receptor occupancy values are small over estimates of the true value as the pKi for CCR3 inhibitor '994 was determined in buffer and not blood. The fractional CCR3 receptor occupancy will largely be due to binding to eosinophils as this is the predominant CCR3 bearing cell population. […] This same group also used very small doses of anti-CCR3 antibodies dosed by intravitreal injection to limit laser-induced CNV in mouse models and these very small doses would have very limited impact of fractional receptor occupancy even if they were able to access the systemic circulation. In addition, topical dosing of CCR3 inhibitor '994 as an eye drop formulation was also efficacious in the JR5558 model. […] It is highly likely however that systemic dosing drives exposure of CCR3 antagonist in the eye and ultimately the effect on disease and the exposure in the eye is likely to be a complex function of the systemic exposure and thus an understanding of the systemic pharmacokinetics driving efficacy may be important in profiling systemic therapies.

[2] abbreviates: 2 mg/kg i.p. QD v Vehicle, 12 days P14-P26, fluorescence angiography.
The mark [3] stands for this setting: 8 mg/kg i.p. QD v Vehicle, 12 days P14-P26, fluorescence angiography.
Setting [4] is: 30 mg/kg i.p. QD v Vehicle, 12 days P14-P26, fluorescence angiography.
Where [5] appears, read: eye drop study, 1 mg/ml, 5 ul eye drop to each eye BID v Vehicle, P14-P26.
[6] abbreviates: eye drop study, 8 mg/kg i.p. BID comparator v Vehicle, P14-P26.
The mark [7] stands for this setting: eye drop study, 10 mg/ml, 5 ul eye drop to each eye BID v Vehicle, P14-P26.

Take `NC(=O)c1ccc(CNC(=O)NC[C@H]2CN(Cc3ccc(Cl)c(Cl)c3)CCO2)cc1` [CCR3 inhibitor '994, 4-[[[[[[(2s)-4-[(3,4-dichlorophenyl)methyl]-2-morpholinyl]methyl]-amino]carbonyl]-amino]methyl]benzamide]: the “Difference in mean total CNV area per eye” value is reported as −0.0065 in assay [1] (setting [2]); −0.0171 in assay [1] (setting [3]); −0.0264 in assay [1] (setting [4]); −0.0214 in assay [1] (BID study (Table 5), 8 mg/kg BID v Vehicle, 12 days P14-P26, fluorescence angiography); −5442.63 in assay [1] (setting [5]); −9853.26 in assay [1] (setting [6]). The “Difference in mean total CNV area per eye” value in assay [1] (setting [7]) was −8047.55. Moreover, the “Difference in mean total number of CNV lesions per eye” value in assay [1] (setting [2]) is −1.65; in assay [1] (setting [3]), −5.03; in assay [1] (setting [4]), −5.20; in assay [1] (setting [5]), −2.25; in assay [1] (setting [6]), 4.95; in assay [1] (setting [7]), −3.96. Moreover, the “Difference in mean number of CNV lesions per eye” value in assay [1] (BID study (Table 6), 8 mg/kg BID v Vehicle, 12 days P14-P26, fluorescence angiography) is on record as −4.63. The “effect on CNV lesion area and total occurring CNV lesions” value in assay [1] (combination study, 30 mg/kg QD systemic, compared to vehicle) was “significant reduction in both CNV lesion area and total occurring CNV lesions”. The “fractional CCR3 receptor occupancy” value at CCR3 (2 mg/kg i.p., 24 h trough) is recorded as 3.1%; on CCR3 (2 mg/kg i.p., at 8 hours), 97.95%; on CCR3 (8 mg/kg i.p., 24 h trough) it was 11.36%; at CCR3 (8 mg/kg i.p., at 8 hours) it was 99.48%; on CCR3 (30 mg/kg i.p., 24 h trough), 32.45; at CCR3 (30 mg/kg i.p., at 8 hours), 99.86%.
